Here are results for eight compounds from PubChem BioAssay (NCI).

Some test systems named below: 786-0 renal; COLO 205 colon; DU-145 prostate; HCC-2998 colon; HCT-116 colon; HOP-62 NSCLC; LOX IMVI melanoma; NCI-H460 lung; SNB-75 CNS; UACC-62 melanoma.
What all share (assay): NCI tumour cell line growth inhibition, 48 h

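Following 48 hours of exposure in 96-well plates, responses at five concentrations were used to interpolate endpoints linearly. Abbreviation: GI50, concentration required for 50% inhibition of growth. TGI: concentration producing complete growth inhibition.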

Consider `O=C1/C(=C/c2ccccc2[N+](=O)[O-])COc2ccc(O)cc21`, for which the GI50 with 786-0 renal is 1.72 µM; in the assay on COLO 205 colon, 1.14 µM; with DU-145 prostate, 1.72 µM; in the assay with HCC-2998 colon, 1.51 µM; in the assay on HCT-116 colon it was 0.352 µM; in the assay on HOP-62 NSCLC it was 5.21 µM. In addition, the GI50 is 1.05 µM in the assay with LOX IMVI melanoma, 2.1 µM with NCI-H460 lung, 2.76 µM in the assay on SNB-75 CNS and 1.52 µM with UACC-62 melanoma. For the same compound, the TGI in the assay on 786-0 renal stood at 10 µM; in the assay with COLO 205 colon, 2.89 µM; in the assay on DU-145 prostate it was 4.29 µM; in the assay on HCC-2998 colon, 2.94 µM; in the assay on HCT-116 colon it was 1.57 µM; in the assay on HOP-62 NSCLC, 19.3 µM. For the same compound, the TGI amounted to 2.27 µM in the assay on LOX IMVI melanoma, 5.04 µM in the assay on NCI-H460 lung, 19.6 µM in the assay on SNB-75 CNS and 3.08 µM with UACC-62 melanoma.
Regarding `CCOC(=O)C(Cc1ccc(N(CCCl)CCCl)cc1)NC(=O)C(Cc1ccccc1)NC(C)=O` (stereo not given), the TGI in the assay on 786-0 renal was above 0.399 µM; in the assay with COLO 205 colon, above 0.321 µM; in the assay with DU-145 prostate, above 1 µM; in the assay on HCC-2998 colon, above 1 µM; with HCT-116 colon, above 0.388 µM; in the assay on HOP-62 NSCLC, above 0.431 µM. The TGI was above 0.386 µM with LOX IMVI melanoma, above 0.553 µM with NCI-H460 lung, above 1 µM in the assay on SNB-75 CNS and above 0.277 µM with UACC-62 melanoma.
Turning to `COc1cc2c(cc1NC(=O)C(Cl)Cl)-c1ccc(NC(=O)C(Cl)Cl)cc1C2`, the GI50 was 1.27 µM in the assay on 786-0 renal; 0.407 µM in the assay on COLO 205 colon; 0.265 µM with DU-145 prostate; 0.976 µM in the assay with HCC-2998 colon; 0.136 µM in the assay on HCT-116 colon; 0.587 µM in the assay with HOP-62 NSCLC. The GI50 in the assay with LOX IMVI melanoma is 5.43 µM; in the assay with NCI-H460 lung, 0.25 µM; in the assay on SNB-75 CNS, 0.758 µM; with UACC-62 melanoma, 0.586 µM. Also, the TGI in the assay on 786-0 renal worked out at 3.92 µM; in the assay on COLO 205 colon, 1.1 µM; with DU-145 prostate it was 0.804 µM; with HCC-2998 colon it was 2.38 µM; in the assay with HCT-116 colon it was 0.271 µM; with HOP-62 NSCLC it was 1.64 µM. The TGI with LOX IMVI melanoma is 18.1 µM; with NCI-H460 lung, 0.69 µM; in the assay with SNB-75 CNS, 3.19 µM; with UACC-62 melanoma, 2.07 µM.
As to `COC1=C(OC)[C@]2(OC)c3c(O)c(OC)c4c(c3O[C@@]23O[C@@H](c2ccccc2)CC=C3C1=O)[C@@H](OC)C[C@H](c1ccccc1)O4`, the GI50 is 0.292 µM with 786-0 renal; 0.326 µM with COLO 205 colon; 2.09 µM in the assay with DU-145 prostate; 1.4 µM with HCC-2998 colon; 0.226 µM with HCT-116 colon; 2.33 µM in the assay with HOP-62 NSCLC. Besides, the GI50 with LOX IMVI melanoma was 1.58 µM; in the assay on NCI-H460 lung it was 1.09 µM; with SNB-75 CNS, 1.36 µM; in the assay on UACC-62 melanoma, 1.82 µM. The TGI in the assay with 786-0 renal stood at 0.801 µM; in the assay on COLO 205 colon, 1.44 µM; with DU-145 prostate it was 3.75 µM; in the assay with HCC-2998 colon it was 3.32 µM; in the assay on HCT-116 colon, 0.517 µM; with HOP-62 NSCLC, 5.61 µM. The TGI in the assay on LOX IMVI melanoma was determined as 3.31 µM; with NCI-H460 lung it was 2.56 µM; in the assay with SNB-75 CNS, 2.79 µM; in the assay with UACC-62 melanoma it was 3.83 µM.
As to `C=CCN(CC=C)C(=O)[C@H](CC)[C@@H]1CC[C@@H](C)[C@@H]([C@H](C)[C@@H](O)[C@@H](C)C(=O)[C@H](CC)C2O[C@]3(C=C[C@@H](O)[C@]4(CC[C@@](C)([C@H]5CC[C@](O)(CC)[C@H](C)O5)O4)O3)[C@H](C)C[C@@H]2C)O1` (stereo not given in full), the GI50 is 2.19 µM with 786-0 renal; 2.56 µM in the assay with COLO 205 colon; 2.46 µM with DU-145 prostate; 2.41 µM in the assay on HCC-2998 colon; 2.81 µM in the assay on HCT-116 colon; 3.22 µM in the assay with HOP-62 NSCLC. The GI50 was 1.52 µM with LOX IMVI melanoma, 1.97 µM in the assay on NCI-H460 lung, 1.84 µM in the assay on SNB-75 CNS and 1.66 µM in the assay with UACC-62 melanoma. In addition, the TGI in the assay with 786-0 renal was 5.48 µM; with COLO 205 colon, 6.23 µM; in the assay on DU-145 prostate, 5.61 µM; in the assay on HCC-2998 colon, 7.26 µM; with HCT-116 colon it was 10.1 µM; with HOP-62 NSCLC, 12.2 µM. Moreover, the TGI turned out to be 3.22 µM in the assay with LOX IMVI melanoma, 4.35 µM with NCI-H460 lung, 10.5 µM in the assay on SNB-75 CNS and 4.09 µM in the assay with UACC-62 melanoma.
For the compound `Cc1cc(O)c2c3c(ccc2c1)C(=O)c1c(O)cccc1C3=O`, the TGI was above 100 µM with 786-0 renal; 12.4 µM in the assay with COLO 205 colon; above 100 µM with DU-145 prostate; above 100 µM with HCC-2998 colon; above 100 µM with HCT-116 colon; above 100 µM in the assay with HOP-62 NSCLC. The TGI with LOX IMVI melanoma is above 100 µM; with NCI-H460 lung it was above 27 µM; in the assay with SNB-75 CNS, above 74.7 µM; in the assay on UACC-62 melanoma, 13.6 µM.
As for `N#C/C(=C\c1cc2ccc(N3CCC3)cc2oc1=O)C(=O)N(CC(=O)O)CC(=O)O`, the GI50 with 786-0 renal, in the assay on COLO 205 colon, with DU-145 prostate, with HCC-2998 colon, with HCT-116 colon and with HOP-62 NSCLC was above 100 µM each time. The GI50 with LOX IMVI melanoma, with NCI-H460 lung, in the assay with SNB-75 CNS and with UACC-62 melanoma was above 100 µM in each case. Further, the TGI in the assay with 786-0 renal, with COLO 205 colon, in the assay on DU-145 prostate, with HCC-2998 colon, in the assay with HCT-116 colon and with HOP-62 NSCLC was above 100 µM throughout. Further, the TGI in the assay on LOX IMVI melanoma, in the assay on NCI-H460 lung, in the assay with SNB-75 CNS and with UACC-62 melanoma was above 100 µM throughout.
As for `c1ccc(C2CCCCC2)c(OCCCCCN2CCNCC2)c1`, the GI50 in the assay on 786-0 renal is 1.7 µM; in the assay on COLO 205 colon, 1.45 µM; in the assay with DU-145 prostate it was 4.17 µM; in the assay on HCC-2998 colon, 1.32 µM; with HCT-116 colon it was 1.65 µM; in the assay on HOP-62 NSCLC, 10.4 µM. Also, the GI50 in the assay on LOX IMVI melanoma was 1.59 µM; with NCI-H460 lung, 1.65 µM; in the assay on SNB-75 CNS it was 1.32 µM; in the assay with UACC-62 melanoma it was 1.87 µM. Also, the TGI in the assay on 786-0 renal came to 4.27 µM; with COLO 205 colon, 3.31 µM; with DU-145 prostate, 16.2 µM; with HCC-2998 colon, 2.7 µM; in the assay with HCT-116 colon it was 4.19 µM; in the assay with HOP-62 NSCLC it was 28.5 µM. The TGI with LOX IMVI melanoma is 3.01 µM; with NCI-H460 lung, 3.56 µM; in the assay on SNB-75 CNS, 3.54 µM; in the assay with UACC-62 melanoma, 3.62 µM.
